Test results from PubChem BioAssay AID1963856 (Molecular Pharmacology Branch, DTP, NCI, 2024).

Tested on: LG0567-F671-PDC KRAS tumor spheroid viability
Assay: Anticancer human tumor LG0567-F671-PDC patient-derived lung adenocarcinoma cell line growth inhibition [KRAS2]
Details: spheroids with HUVEC and MSC; for IC50: curve of first compound; for viability, T/C: stronger effect = lower value
Summary of the method: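 Combination screen of spheroid viability in tumor-cell co-cultures with endothelial (HUVEC) and mesenchymal stem cell stroma. Each agent was tested in half-log dilutions, topping at clinical Cmax or at 10 microM without a known Cmax.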

[1] = second compound 0.0316 µM, first compound 0.0316 µM
[2] = second compound 0.0316 µM, first compound 0.1 µM
[3] = second compound 0.0316 µM, first compound 0.316 µM
[4] = second compound 0.0316 µM, first compound 1 µM
[5] = second compound 0.0316 µM, first compound 3.16 µM
[6] = second compound 0.0316 µM, first compound 10 µM
[7] = second compound 0.1 µM, first compound 0.0316 µM
[8] = second compound 0.1 µM, first compound 0.1 µM
[9] = second compound 0.1 µM, first compound 0.316 µM
[10] = second compound 0.1 µM, first compound 1 µM
[11] = second compound 0.1 µM, first compound 3.16 µM
[12] = second compound 0.1 µM, first compound 10 µM
[13] = second compound 0.316 µM, first compound 0.0316 µM
[14] = second compound 0.316 µM, first compound 0.1 µM
[15] = second compound 0.316 µM, first compound 0.316 µM
[16] = second compound 0.316 µM, first compound 1 µM
[17] = second compound 0.316 µM, first compound 3.16 µM
[18] = second compound 0.316 µM, first compound 10 µM
[19] = second compound 1 µM, first compound 0.0316 µM
[20] = second compound 1 µM, first compound 0.1 µM
[21] = second compound 1 µM, first compound 0.316 µM
[22] = second compound 1 µM, first compound 1 µM
[23] = second compound 1 µM, first compound 3.16 µM
[24] = second compound 1 µM, first compound 10 µM
[25] = second compound 3.16 µM, first compound 0.0316 µM
[26] = second compound 3.16 µM, first compound 0.1 µM
[27] = second compound 3.16 µM, first compound 0.316 µM
[28] = second compound 3.16 µM, first compound 1 µM
[29] = second compound 3.16 µM, first compound 3.16 µM
[30] = second compound 3.16 µM, first compound 10 µM
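Note: drug exposure lasted seven days after spheroids formed for three days.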
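Throughout, for viability, T/C: 100% = DMSO vehicle control viability.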

Row | SMILES | IC50 (second compound 0.0316 µM) [nM] | IC50 (second compound 0.1 µM) [nM] | IC50 (second compound 0.316 µM) [nM] | IC50 (second compound 1 µM) [nM] | IC50 (second compound 3.16 µM) [nM] | viability, T/C [1] [%] | viability, T/C [2] [%] | viability, T/C [3] [%] | viability, T/C [4] [%] | viability, T/C [5] [%] | viability, T/C [6] [%] | viability, T/C [7] [%] | viability, T/C [8] [%] | viability, T/C [9] [%] | viability, T/C [13] [%] | viability, T/C [14] [%] | viability, T/C [19] [%] | viability, T/C [20] [%] | viability, T/C [25] [%] | viability, T/C [26] [%] | other results
1 | CC(C)NCC(C(=O)N1CCN(c2ncnc3c2C(C)CC3O)CC1)c1ccc(Cl)cc1 (stereo not given) + C=CC(=O)N1CCN(c2nc(OCC3CCCN3C)nc3c2CCN(c2cccc4cccc(C)c24)C3)CC1CC#N | < 31.6 | < 31.6 | < 31.6 | < 31.6 | < 31.6 | 36 | 33.7 | 24.6 | 22.8 | 22.4 | 19.8 | 28.5 | 27.5 | 18.6 | 33.9 | 29.3 | 38.6 | 32.3 | 8.92 | 7.61 | viability, T/C [10]: 20.1%; viability, T/C [11]: 17%; viability, T/C [12]: 13.4%; viability, T/C [15]: 21%; viability, T/C [16]: 19.5%; viability, T/C [17]: 18.6%; viability, T/C [18]: 15.4%; viability, T/C [21]: 24.6%; viability, T/C [22]: 18.2%; viability, T/C [23]: 15.3%; viability, T/C [24]: 13.3%; viability, T/C [27]: 4.92%; viability, T/C [28]: 2.79%; viability, T/C [29]: 3.43%; viability, T/C [30]: 0.37%
2 | CC1(C)CCC(CN2CCN(c3ccc(C(=O)NS(=O)(=O)c4ccc(NCC5CCOCC5)c([N+](=O)[O-])c4)c(Oc4cnc5[nH]ccc5c4)c3)CC2)=C(c2ccc(Cl)cc2)C1 + C=CC(=O)N1CCN(c2nc(OCC3CCCN3C)nc3c2CCN(c2cccc4cccc(C)c24)C3)CC1CC#N | < 31.6 | < 31.6 | < 31.6 | < 31.6 | < 31.6 | 31.1 | 37.4 | 35 | 39.5 | 12.7 | 5.63 | 30.2 | 36.3 | 29.7 | 34 | 32.6 | 34.2 | 33.5 | 21.8 | 16.1 | viability, T/C [10]: 28.7%; viability, T/C [11]: 10.7%; viability, T/C [12]: 5.62%; viability, T/C [15]: 32%; viability, T/C [16]: 27.7%; viability, T/C [17]: 6.23%; viability, T/C [18]: 2.16%; viability, T/C [21]: 33.4%; viability, T/C [22]: 31.9%; viability, T/C [23]: 2.97%; viability, T/C [24]: 0.47%; viability, T/C [27]: 8.41%; viability, T/C [28]: 0.74%; viability, T/C [29]: 0.13%; viability, T/C [30]: 0.89%
3 | Cn1ncnc1[C@H]1c2n[nH]c(=O)c3cc(F)cc(c23)N[C@@H]1c1ccc(F)cc1 + C=CC(=O)N1CCN(c2nc(OCC3CCCN3C)nc3c2CCN(c2cccc4cccc(C)c24)C3)CC1CC#N | < 0.316 | < 0.316 | < 0.316 | < 0.316 | < 0.316 | 32 | 29.4 | – | – | – | – | 27.6 | 27.9 | – | 29.6 | 30.8 | 26.1 | 24.9 | 10.8 | 9.1 | viability, T/C (second compound 0.0316 µM, first compound 0.000316 µM): 44.2%; viability, T/C (second compound 0.0316 µM, first compound 0.001 µM): 41.6%; viability, T/C (second compound 0.0316 µM, first compound 0.00316 µM): 36.3%; viability, T/C (second compound 0.0316 µM, first compound 0.01 µM): 35.6%; viability, T/C (second compound 0.1 µM, first compound 0.000316 µM): 34%; viability, T/C (second compound 0.1 µM, first compound 0.001 µM): 28.7%; viability, T/C (second compound 0.1 µM, first compound 0.00316 µM): 37.9%; viability, T/C (second compound 0.1 µM, first compound 0.01 µM): 27.4%; viability, T/C (second compound 0.316 µM, first compound 0.000316 µM): 34%; viability, T/C (second compound 0.316 µM, first compound 0.001 µM): 35.5%; viability, T/C (second compound 0.316 µM, first compound 0.00316 µM): 25.3%; viability, T/C (second compound 0.316 µM, first compound 0.01 µM): 25.8%; viability, T/C (second compound 1 µM, first compound 0.000316 µM): 41.2%; viability, T/C (second compound 1 µM, first compound 0.001 µM): 32.9%; viability, T/C (second compound 1 µM, first compound 0.00316 µM): 35.3%; viability, T/C (second compound 1 µM, first compound 0.01 µM): 26.7%; viability, T/C (second compound 3.16 µM, first compound 0.000316 µM): 14.8%; viability, T/C (second compound 3.16 µM, first compound 0.001 µM): 16.5%; viability, T/C (second compound 3.16 µM, first compound 0.00316 µM): 15.4%; viability, T/C (second compound 3.16 µM, first compound 0.01 µM): 16.1%
